In BindingDB's records for doi:10.1016/j.ejmech.2018.03.040 (University of Torino, 2018):

molecular target: Prostaglandin G/H synthase 2 (COX2, PTGS2) (Homo sapiens) (UniProt P35354); experiment: Inhibition of human COX2 assessed as reduction in PGF2alpha production by ELISA
Sequence (P35354 whole entry, looked up): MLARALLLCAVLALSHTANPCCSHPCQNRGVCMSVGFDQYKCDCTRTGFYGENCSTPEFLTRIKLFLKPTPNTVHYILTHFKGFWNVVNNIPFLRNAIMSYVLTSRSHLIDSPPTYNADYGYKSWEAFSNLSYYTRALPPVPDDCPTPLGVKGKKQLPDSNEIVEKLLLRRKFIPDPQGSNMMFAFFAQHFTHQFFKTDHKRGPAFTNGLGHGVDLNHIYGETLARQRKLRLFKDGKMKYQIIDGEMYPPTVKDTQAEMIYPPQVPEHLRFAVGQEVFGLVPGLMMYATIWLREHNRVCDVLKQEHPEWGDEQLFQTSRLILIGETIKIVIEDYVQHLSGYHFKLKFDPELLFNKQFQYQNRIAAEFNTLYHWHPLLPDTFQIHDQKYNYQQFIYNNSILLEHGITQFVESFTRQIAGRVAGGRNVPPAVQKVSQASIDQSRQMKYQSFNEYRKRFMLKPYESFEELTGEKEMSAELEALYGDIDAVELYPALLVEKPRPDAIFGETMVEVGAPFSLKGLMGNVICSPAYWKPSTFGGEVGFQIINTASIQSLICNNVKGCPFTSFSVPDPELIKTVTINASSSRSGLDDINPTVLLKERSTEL

IC50, > 100 µM:
COc1ccc(Cn2nnc(O)c2C(=O)Nc2cccc(C(F)(F)F)c2)cc1OC, O=C(Nc1cccc(C(F)(F)F)c1)c1c(O)nnn1Cc1ccc(OC(F)(F)F)cc1, O=[N+]([O-])c1cccc(Nc2cccc3onc(O)c23)c1, Oc1noc2cccc(Nc3cccc(S(F)(F)(F)(F)F)c3)c12, Oc1noc2cccc(Nc3cc(C(F)(F)F)cc(C(F)(F)F)c3)c12, Oc1noc2ccc(Nc3cccc(C(F)(F)F)c3)cc12, Oc1noc2cccc(Nc3cccc(C(F)(F)F)c3)c12
